In experiment [1] the test system is co-cultures of E0771 cells and IL-2-activated CD8+ T cells. Put plainly: Image-based phenotypic drug screen (H5 fluorescence). The note with it: for fluorescence signals compared to IL-2 only controls: combination with IL-2.
Method: E0771 and CD8+ T cells were co-cultured for 2 days and then incubated with IL-2 (100 U mL^−1) and each individual drug at their respective working concentrations for 3 h (Table S5).
Wells received 100 U mL^−1 IL-2 (low IL-2) for T cell viability. […] Data as means ± SEM (n = 8). […] Data as means ± SD (n = 5). P-value from two-tailed t-tests.
E0771 (750 cells/well) and freshly isolated murine CD8+ T cells (6000 cells/well) were plated in 384-well plates as described above. After 2 days of co-culture at 37 °C, cells were further incubated with IL-2 alone (100 or 250 U mL^−1) or IL-2 (100 U mL^−1) in combination with drugs (Table S5) for 3 h. […] Briefly, nuclei were used as seeds to create a pseudo-cell area and GzmB-positive puncta were detected using a top-hat filter (pixel size: 10, circle shape) followed by an average filter (3 × 3 pixels).
A further experiment concerns E0771 cells. Put plainly: Flow cytometry of E0771 cells in co-culture with CD8+ T cells. The experiment is classed as cell-based, mouse. The note with it: E0771 alone, staurosporine 1 μM, 1 h. The procedure: Treatments with staurosporine (1 μM) were for 1 h. […]
mouse CD8+ T cells and mKate-E0771 cells. b) Representative flow cytometry contour plots of E0771 cells in: left) co-cultures of E0771 cells (50,000 cells well-1) and activated […]
cells well-1), right) E0771 alone cells treated with staurosporine (1 µM, 1 h). c) Representative flow cytometry contour plots of CD8+ T cells in: left) co-cultures of E0771 […]
2 h) murine CD8+ T cells (200,000 cells well -1). All cultures in b) and c) were equally […]
with and without preincubation of the GzmB inhibitor Ac -IEPD-CHO. Data presented as […]
633/670 nm (for AF647-Annexin V). Representative plots from independent experiments performed in triplicate. Source data in d provided as a Source Data file.

Experiment [2] relates to E0771 cells alone or in co-culture with CD8+ T cells. Put plainly: Hit validation of AZD5363 by flow cytometry. The experiment is classed as cell-based, mouse. The protocol: (from 3 independent experiments) in E0771 cells alone (50,000 cells well-1) or in co-culture with CD8+ T cells (200,000 cells well-1) and treatment of AZD5363 (1 μM). concentration: 1,000 U mL-1. Excitation/emission wavelengths: 488 nm/525 nm. b) Representative flow cytometry contour plots (from 3 independent experiments; gating […]
(1 picture or pasted object on this page, not shown here) […]
strategy shown in Supplementary Figure 7) of E0771 cells (50,000 cells well-1) after co- […]
633/670 nm (for AF647-Annexin V). c) Percentages of E0771 cells that were double - […]
in a). Data presented as mean values±SEM (n=3). […]
obtained from ONE-ANOVA tests with multiple c omparisons. Source data in c provided

Experiment [3] deals with T1, human GzmB (hGzmB) (Homo sapiens, UniProt P10144).
T1 construct: For active GzmB vs pro-GzmB, p < 0.0001
T1 sequence (P10144 21-247): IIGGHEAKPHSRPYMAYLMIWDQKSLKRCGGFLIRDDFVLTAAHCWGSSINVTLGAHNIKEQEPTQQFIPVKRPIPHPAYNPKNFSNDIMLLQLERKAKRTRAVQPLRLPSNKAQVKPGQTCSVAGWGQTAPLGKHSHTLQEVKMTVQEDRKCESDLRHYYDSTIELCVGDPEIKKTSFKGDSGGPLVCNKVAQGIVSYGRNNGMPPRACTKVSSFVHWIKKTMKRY
Put plainly: Fluorescence assay with recombinant hGzmB (fluorogenic response, time course). Type of experiment: biochemical. The protocol:
Fluorescence-based assays with different enzymes were performed in the appropriate buffers. Probes (25 μM) were added to enzymes (20 nM or at the indicated concentrations) in 384-well plates and their fluorescence emission was recorded at 450 nm (for AMC) or 510 nm (for BODIPY) at 37 °C using a Synergy H1 Hybrid spectrophotometer. In experiments with Ac-IEPD-CHO (50 μM), the inhibitor was preincubated for 1 h with GzmB before the addition of any probe.

Experiment [4] has as its target T1, human GzmB (hGzmB). Put plainly: HPLC conversion of fluorogenic peptides by hGzmB. Type of experiment: biochemical. The note with it: probe 25 μM (Ac-IEPD-AMC 50 μM), TRIS buffer, 37 °C, HPLC-UV. The procedure: Supplementary Figure 1. Reactivity of fluorogenic substrates against human GzmB and limits of detection. a) Reaction conversion rates (by HPLC-UV detection at 350 nm) for Ac-IEPD-AMC (50 μM) in TRIS buffer (see Methods) at 37 °C containing different concentrations of hGzmB. Data presented as mean values±SEM (n=3 independent biological experiments). b) Reaction conversion rates (by HPLC-UV detection at 500 nm) for the tetrapeptide T1 (25 μM) in TRIS buffer at 37 °C containing different concentrations of hGzmB. Data presented as mean values±SEM (3 independent biological experiments).
Source data provided as a Source Data file.
(1 picture or pasted object on this page, not shown here)
Supplementary Table 1. Chemical structures and reactivity of FRET-based tetrapeptides against human GzmB.
Code Structure Linker Quencher HPLC conversion HPLC conversion […]
Supplementary Table 2. Sequences and reactivity of FRET-based hexapeptides against […]
Code Peptide sequence HPLC conversion
H1 Ile-Glu-Pro-Asp-Ala-Gly 75%
H2 Ile-Glu-Pro-Asp-Ser-Gly 80%
H3 Ile-Glu-Pro-Asp-Ser-Leu 80%
H4 Ile-Glu-Pro-Asp-Trp-Leu 82%
H6 Ile-Glu-Pro-Asp-Trp-Arg 40%
H7 Ile-Glu-Pro-Asp-Arg-Leu 60%
H5m Ile-Glu-Phe-Asp-Ala-Leu 70%

The test system of a further experiment is recombinant mouse GzmB. Put plainly: Reactivity against recombinant mouse GzmB (fluorescence). Type of experiment: biochemical. The settings on record: probe 25 μM, 90 min, 37 °C, mouse pro-GzmB 100 nM pre-activated with cathepsin C. The procedure:
and H5m (both at 25 μM) after incubation for 90 min at 37 °C with recombinant mouse
pro-GzmB (100 nM) after pre-activation with mouse cathepsin C (5.5 μg mL-1) for 4 h.
Excitation/emission wavelengths: 450 nm /510 nm. Data presented as mean values±SEM
(3 independent experiments with 3 technical replicates). Source data provided as a […]

The target in a further experiment is T2, recombinant human GzmB (Homo sapiens, UniProt P10144).
T2 construct: For active GzmB vs pro-GzmB, p < 0.0001
T2 sequence (P10144 21-247): as above
Put plainly: Kinetic measurements (Michaelis-Menten) with recombinant hGzmB. The settings on record: Supplementary Table 4, recombinant human GzmB. Type of experiment: biochemical. The procedure: Fluorescence-based assays with different enzymes were performed in the appropriate buffers. […] In experiments with Ac-IEPD-CHO (50 μM), the inhibitor was preincubated for 1 h with GzmB before the addition of any probe.
Supplementary Table 4. Kinetic values determined for hexapeptides H2-H5 against
Probe Sequence kcat kcat / KM

Setting [5] is: probe 25 μM, hGzmB 20 nM, Data 1.
The mark [6] stands for this setting: probe 25 μM, hGzmB 20 nM, Data 2.
Where [7] appears, read: probe 25 μM, hGzmB 20 nM, Data 3.

Where no end group is shown, it is not given here.

`CC(=O)O[C@@]12CO[C@@H]1C[C@H](O)[C@@]1(C)C(=O)[C@H](O)C3=C(C)[C@@H](OC(=O)[C@H](O)[C@@H](NC(=O)OC(C)(C)C)c4ccccc4)C[C@@](O)([C@@H](OC(=O)c4ccccc4)[C@H]21)C3(C)C` [C11, Docetaxel]: the “fluorescence signals compared to IL-2 only controls” value in experiment [1] is “Increased”.
On the same count and under the same terms, the same measure for `C#CC[C@H](c1nc2cc(Cl)ccc2c(=O)n1Nc1ccccc1)N(CCCN)C(=O)c1cccc(Cl)c1F` [C12, ARQ621]: “Increased”; for `C/C(=C\c1csc(C)n1)[C@@H]1C[C@@H]2O[C@]2(C)CCC[C@H](C)[C@H](O)[C@@H](C)C(=O)C(C)(C)[C@@H](O)CC(=O)O1` [C13, Epothilone B]: “Increased”; for `CO[C@@]12[C@H](COC(N)=O)C3=C(C(=O)C(C)=C(N)C3=O)N1C[C@@H]1N[C@@H]12` [C18, Mitomycin C]: “Increased”.
Same read-out and setting: the same measure for `Cn1nnc2c(C(N)=O)ncn2c1=O` [C20, Temozolomide]: “Increased”; for `CC(=O)N[C@@H](CSC(=O)[C@]1([C@@H](O)C(C)C)NC(=O)[C@H](C)[C@@H]1O)C(=O)O` [C30, Lactacystin]: “Increased”.
As to `CN[C@@H]1C[C@H]2O[C@@](C)([C@@H]1OC)n1c3ccccc3c3c4c(c5c6ccccc6n2c5c31)C(=O)NC4` [staurosporine, reference compound], the “Annexin V +ve E0771 cells” value amounted to 84% in the experiment with E0771 cells (replicate 1), 62% with E0771 cells (replicate 2) and 71% with E0771 cells (replicate 3). In addition, the “viable E0771 cells” value came to 13% in the experiment with E0771 cells (replicate 1), 37% in the experiment on E0771 cells (replicate 2) and 27% in the experiment with E0771 cells (replicate 3).
Consider AZD5363 [C5], for which the “E0771 cells double-stained with probe H5 and AF647-Annexin V” value in experiment [2] (AZ only (AZD5363 1 μM), Data1) stood at 2%; in experiment [2] (AZ only (AZD5363 1 μM), Data2), 2%; in experiment [2] (AZ only (AZD5363 1 μM), Data3), 3%; in experiment [2] (IL-2+AZ (AZD5363 1 μM), co-culture with CD8+ T cells, Data1), 33%; in experiment [2] (IL-2+AZ (AZD5363 1 μM), co-culture with CD8+ T cells, Data2), 42%; in experiment [2] (IL-2+AZ (AZD5363 1 μM), co-culture with CD8+ T cells, Data3), 44%. Besides, in experiment [2] (AZD5363 1 μM alone, E0771 cells), the “cancer cell death and H5 labeling, drug on its own” value was “did not induce significant cancer cell death”. Also, the “cancer cell death and H5 emission, drug with IL-2” value in experiment [2] (AZD5363 1 μM with 100 U mL^−1 IL-2, CD8+ T cell-E0771 co-cultures) is on record as “caused significant cancer cell death”. In experiment [1], the “fluorescence signals compared to IL-2 only controls” value is on record as “Increased”. Moreover, in experiment [1] (drug 1 μM + IL-2 100 U mL^−1, 3 h), the “H5 fluorescence staining in the screen” value is “brightest H5 fluorescence staining”.
As for Ac-IEPD-aldehyde [reference compound], the “effect on the fluorescence response of H5 to hGzmB” value at human GzmB (hGzmB) [3] (Ac-IEPD-CHO 50 μM preincubated 1 h with GzmB) is on record as “markedly reduced”.
“IEFDAL [H5m, hexapeptide analogue containing phenylalanine, IEFDAL]”: the “HPLC conversion (20 nM hGzmB, 2 h)” value on human GzmB (hGzmB) [4] is reported as 70%. For the same compound, the Fluorescence fold increase in the experiment with recombinant mouse GzmB (Data 1) was determined as 5.6; in the experiment with recombinant mouse GzmB (Data 2) it was 7.1; with recombinant mouse GzmB (Data 3), 5.2; with recombinant mouse GzmB (Data 4), 8.2; in the experiment with recombinant mouse GzmB (Data 5), 10.5; with recombinant mouse GzmB (Data 6), 7.7. Further, the Fluorescence fold increase in the experiment on recombinant mouse GzmB (Data 7) came out at 9.6; with recombinant mouse GzmB (Data 8), 8.2; in the experiment with recombinant mouse GzmB (Data 9) it was 12.2.
On to IEPDAG [H1, FRET hexapeptide IEPDAG], for which the S/N ratios was determined as 61 on human GzmB (hGzmB) [3] (setting [5]), 48 at human GzmB (hGzmB) [3] (setting [6]) and 55 at human GzmB (hGzmB) [3] (setting [7]). Moreover, the t50 at human GzmB (hGzmB) [3] (setting [5]) was 32 min; on human GzmB (hGzmB) [3] (setting [6]), 38 min; on human GzmB (hGzmB) [3] (setting [7]), 36 min. Besides, at human GzmB (hGzmB) [4], the “HPLC conversion (20 nM hGzmB, 2 h)” value is given as 75%.
For the compound “IEPDRL [H7, negative control FRET hexapeptide IEPDRL]”, the S/N ratios came to 14 on human GzmB (hGzmB) [3] (setting [6]) and 13 at human GzmB (hGzmB) [3] (setting [7]). The “HPLC conversion (20 nM hGzmB, 2 h)” value at human GzmB (hGzmB) [4] is reported as 60%.
For IEPDSG [H2, FRET hexapeptide IEPDSG], the values for the S/N ratios on human GzmB (hGzmB) [3] (setting [5]), at human GzmB (hGzmB) [3] (setting [6]) and on human GzmB (hGzmB) [3] (setting [7]) were 67, 70 and 69, respectively. For the same compound, the t50 at human GzmB (hGzmB) [3] (setting [5]) worked out at 13 min; at human GzmB (hGzmB) [3] (setting [6]), 15 min; on human GzmB (hGzmB) [3] (setting [7]) it was 14 min. The “HPLC conversion (20 nM hGzmB, 2 h)” value on human GzmB (hGzmB) [4] was found to be 80%. Also, at recombinant human GzmB, the kcat came out at 11.2 s⁻¹.
As to IEPDSL [H3, FRET hexapeptide IEPDSL], the S/N ratios is 68 on human GzmB (hGzmB) [3] (setting [5]), 76 at human GzmB (hGzmB) [3] (setting [6]) and 73 on human GzmB (hGzmB) [3] (setting [7]). The t50 at human GzmB (hGzmB) [3] (setting [5]) was 15 min; on human GzmB (hGzmB) [3] (setting [6]), 18 min; on human GzmB (hGzmB) [3] (setting [7]), 14 min. Moreover, the “HPLC conversion (20 nM hGzmB, 2 h)” value on human GzmB (hGzmB) [4] is given as 80%. Besides, the turnover number (kcat) on recombinant human GzmB amounted to 23.6 s⁻¹.
IEPDWL [H4, FRET hexapeptide IEPDWL]: the figures for the S/N ratios at human GzmB (hGzmB) [3] (setting [5]), at human GzmB (hGzmB) [3] (setting [6]) and at human GzmB (hGzmB) [3] (setting [7]) were 78, 73 and 75, respectively. In addition, the t50 stood at 51 min at human GzmB (hGzmB) [3] (setting [5]), 55 min on human GzmB (hGzmB) [3] (setting [6]) and 56 min at human GzmB (hGzmB) [3] (setting [7]). The “HPLC conversion (20 nM hGzmB, 2 h)” value at human GzmB (hGzmB) [4] is on record as 82%. In addition, on recombinant human GzmB, the kcat amounted to 28.2 s⁻¹.
As to “IEPDWR [H6, negative control FRET hexapeptide IEPDWR]”, the S/N ratios is on record as 39 at human GzmB (hGzmB) [3] (setting [6]) and 40 on human GzmB (hGzmB) [3] (setting [7]). The “S/N ratios (fluorescence increase, signal-to-background)” value at human GzmB (hGzmB) [3] (probe 25 μM, hGzmB 20 nM, mean ± SEM, n = 3) was 12. For the same compound, the “HPLC conversion (20 nM hGzmB, 2 h)” value on human GzmB (hGzmB) [4] came to 40%.

For the origin of these results see publication PMC9061857, “A fluorogenic probe for granzyme B enables in-biopsy evaluation and screening of response to anticancer immunotherapies” (Nature Communications, 2022).
